Test results: US20230338344A1, “AMPK Activators and Methods of Use Thereof” (Bioverativ Therapeutics Inc., priority 2020, published 2023)
Blank lines part the entries; values can stand above or below the molecule they belong to.

Legend:
[1] = test system: human CD34+ cells; experiment: Fetal hemoglobin (HbF) induction in mobilized CD34+ HSPC from healthy individuals during erythroid differentiation, F-cells by flow cytometry; format: cell-based; settings: healthy donors; for fetal hemoglobin induction, F-cell (HbF+) frequency in enucleated GlyA+ cells: vs DMSO or single agents; for frequency of F-cells (HbF+): compared to vehicle (DMSO)
Description: Mobilized CD34+ Human Stem/Progenitor Cells (HSPC) from healthy individuals were cultured for 3 days in a maintenance media consisting of X-VIVO 10 (VWR), 100 U/mL penicillin-streptomycin (ThermoFisher), 2 mM L-glutamine (Fisher Scientific), 100 ng/mL Recombinant Human Stem Cell Factor (SCF), 100 ng/mL Recombinant Human Thrombopoietin (TPO) and 100 ng/mL Recombinant Human Flt-3 Ligand (Flt-3L) (all three from ThermoFisher). Cells were differentiated into erythroid cells using a three-step differentiation protocol developed by the Luc Douay group (Giarratana et al. 2005). […] On day 7, cells were transferred to step 2 media, a step 1 media without hydrocortisone and IL-3, and cultured for 3-4 days. Then cells were cultured for 8-9 days in step 3 media, a step 2 media without SCF. […] To determine the percentage of HbF-positive cells (F-cells), differentiate cells were fixed and permeabilized using a fixation kit (ThermoFisher). Cells were stained with PE-Cy7-conjugated anti-CD235 or PE-conjugated anti-CD71 antibodies. HbF levels were detected using Allophycocyanin (APC)-conjugated anti-HbF antibody (ThermoFisher). The acquisition of stained cells was performed on BD FACSCanto™ and the analysis was run using FlowJo™ Software.
Human CD34+ cells were exposed to β1-selective AMPK activators and pan-AMPK activators during the 21-day differentiation process. To assess fetal hemoglobin expression level, cells were fixed and stained with CD235a, CD71 and fetal hemoglobin antibodies for flowcytometry analysis.
After 14 days of differentiation, cells were fixed and stained with CD235a, CD71 and fetal hemoglobin antibodies for flowcytometry analysis.

[2] = test system: human CD34+ cells from sickle cell donors; experiment: Fetal hemoglobin induction in CD34+ cells from patients with sickle cell disease, 14-day differentiation; format: cell-based; settings: 14 days of differentiation, vs DMSO
From the text: To measure the effect of AMPK activators on fetal hemoglobin induction in CD34+ cells from patients with sickle cell disease, circulating CD34+ progenitor cells were isolated from total blood obtained from a sickle cell patients, by performing a positive selection for CD34+ cells with magnetic beads (Miltenyi Biotec). Purified CD34+ cells were differentiated for 14 days. After differentiation, cells were fixed and stained with CD235a, CD71 and fetal hemoglobin antibodies for flowcytometry analysis.

[3] = target: T1, AMPK (Homo sapiens, UniProt Q13131+Q9Y478); experiment: AMPK target engagement: Thr172 phosphorylation of alpha-AMPK (Alpha SureFire Ultra Multiplex) in CD34+ cells at day 11 of differentiation; format: cell-based; settings: differentiated CD34+ cells
T1 construct: endogenous in cells; host or cells: mobilized human CD34+ HSPC from a healthy donor, day 11 of erythroid differentiation

[4] = test system: AMPK; experiment: AMPK target engagement: Thr172 phosphorylation of alpha-AMPK (Alpha SureFire Ultra Multiplex) in undifferentiated HUDEP-2 cells; format: cell-based, human
Description: Phosphorylation of AMPK at threonine 172 (Thr172) on the α-subunit of AMPK was assessed by […] using the Alpha SureFire Ultra Multiplex p-AMPKα1/2 (Thr172)+Total AMPKα1/2 Assay Kit from Perkin Elmer as a target engagement assay. The assay kit contains antibodies, coupled with fluorophore Europium, which recognize the phospho-Thr172 epitope and a distal epitope on α-AMPK of human or mouse AMPK. The kit also contains antibodies coupled with the fluorophore Terbium to measure the total levels of AMPK. […] As to the human HUDEP-2 cells line, cells were undifferentiated during exposure to AMPK activators. According to the time course, cells were collected and lysed using RIPA buffer mixed with a phosphatase and protease inhibitors cocktail (Thermofisher). Phospho-AMPK signal was divided by total AMPK signal and the ratio was normalized to the total protein concentration. Samples protein concentrations were measured with the Pierce BSA Protein Assay (ThermoFisher).

[5] = test system: human CD34+ cells; experiment: Maturation of CD34+ cells to erythrocytes: enucleation (NucRed) and markers CD71/CD235a by flow cytometry; format: cell-based
Description: During human CD34+ cells differentiation, maturation is measured by quantification of enucleation and expression of markers CD71 and CD235a, and assessed by flowcytometry. […] As well, cells were stained for markers CD235a and CD71. The acquisition was performed on BD FACSCanto™ and the analysis was done using FlowJo™ Software.

[6] = test system: M1 macrophages; experiment: Macrophage polarization to pro-inflammatory M1 phenotype, markers by flow cytometry; format: cell-based, human; settings: M-CSF polarized macrophages activated by IFN-γ or LPS for 24 h
Description: M1 macrophages were induced by stimulation with M-CSF (50 ng/mL) for 6 days, then activated by IFN-7 or LPS for 24 h, fixed, stained for M1 polarization markers CD38, CD64, CD86 and CD80 and acquired by flowcytometry.

[7] = test system: HBG (human gamma-globin) mRNA; experiment: gamma-globin (HBG) mRNA in Townes mouse bone marrow by qRT-PCR; format: in vivo; settings: HbAA mice bone marrow, 2 days of exposure, 100 mg/kg
Description: Total RNA from Townes mouse bone marrow cells was prepared using a RNeasy Mini kit (Qiagen). A quantity of 1 μg of mRNA was reverse transcribed using an iVILO Retro Transcription kit (ThermoFisher). 50 ng of the resulting cDNA was amplified by Taqman amplification in a QuantStudio thermocycler (Life Technologies) using HBG (human 7-globin primers) as gene of interest, and GAPDH (mouse gapdh primers) as a housekeeping gene (Life Technologies). The delta Ct was calculated and difference in mRNA expression was expressed as a fold-change to vehicle condition.

[8] = test system: fetal hemoglobin protein; experiment: Human fetal hemoglobin protein in Townes mice bone marrow by flow cytometry, 15-day study; format: in vivo, mouse; settings: HbSS Townes mice, 100 mg/kg PO QD 15 days, vs vehicle
From the text: These mice express the genes for human HbS (homozygous HbSS), express the physiopathological phenotype of SCD and are called “HbSS-Townes mice”, whereas the control Townes mice express the genes for human HbA without the sickle mutation (homozygous HbAA), are healthy, and are called “HbAA-Townes mice” (Jackson Laboratory). These control HbAA-Townes mice were created by replacing the murine globin genes with human α-globin gene (genotype: Hba hα/hα) and linked human βA− and fetal Aγ-globins (genotype: Hbb hAγβA/hAγβA), whereas HbSS-Townes mice were created by replacing the murine adult α-globin genes with the human α-globin gene (genotype: Hba hα/hα), and the murine adult β-globin genes were replaced with human sickle βS− and fetal Aγ-globin gene fragments linked together (genotype: Hbb hAγβS/hAγβS).

[9] = test system: Reactive Oxidative Species (ROS); experiment: Reactive Oxidative Species (ROS) in bone marrow from Townes SCD mice by flow cytometry; format: in vivo, mouse; settings: 100 mg/kg PO QD 15 days, vs HbSS mice treated with vehicle
[10] = test system: Nrf2-oxidative stress response pathway; experiment: Transcriptomic and proteomic analysis of human CD34+ cells differentiated 14 days (correlation study, IPA); format: cell-based; settings: 3 healthy donors
Description: At day 14, RNA was extracted with Trizol reagent (Invitrogen). DNase treatment, RNA integrity and quantification, libraries generation and sequencing (Illumina HiSeq platforms HiSeq 2500) were realized according to Genewiz protocol (South Plainfield, NJ). Concerning the proteomic analysis, proteins were extracted from the same CD34+ cells used for the transcriptomic analysis. Samples preparation, proteins digestion, peptides TMT labeling and proteomic analysis were performed according to IQ Proteomics (Cambridge, MA). Bioinformatics analysis have been conducted to determine the differential expression of mRNA and proteins, and a correlation study using the differential expression from the transcriptomic analysis and the differential expression from the proteomics analysis has been run. […] SQSTM1 is known to activate Nrf2 by inhibiting Keapl, and Nrf2 pathway is known to induce HO-1 for antioxidative function in cells.

[11] = 7-day toxicological study in rats, hematological erythroid parameters; format: in vivo, Crl:CD (Sprague Dawley) rats; settings: rats, 100, 300 and 1000 mg/kg/day PO QD 7 days, blood on day 8
Description: On day 8, blood samples were drawn and complete blood counts (CBC) were tested on a hematology analyzer to determine red blood cell counts (10^6 RBC/μL), hemoglobin (Hb, g/dL) and hematocrit (HCT, %).

T1 sequence (Q13131 whole entry): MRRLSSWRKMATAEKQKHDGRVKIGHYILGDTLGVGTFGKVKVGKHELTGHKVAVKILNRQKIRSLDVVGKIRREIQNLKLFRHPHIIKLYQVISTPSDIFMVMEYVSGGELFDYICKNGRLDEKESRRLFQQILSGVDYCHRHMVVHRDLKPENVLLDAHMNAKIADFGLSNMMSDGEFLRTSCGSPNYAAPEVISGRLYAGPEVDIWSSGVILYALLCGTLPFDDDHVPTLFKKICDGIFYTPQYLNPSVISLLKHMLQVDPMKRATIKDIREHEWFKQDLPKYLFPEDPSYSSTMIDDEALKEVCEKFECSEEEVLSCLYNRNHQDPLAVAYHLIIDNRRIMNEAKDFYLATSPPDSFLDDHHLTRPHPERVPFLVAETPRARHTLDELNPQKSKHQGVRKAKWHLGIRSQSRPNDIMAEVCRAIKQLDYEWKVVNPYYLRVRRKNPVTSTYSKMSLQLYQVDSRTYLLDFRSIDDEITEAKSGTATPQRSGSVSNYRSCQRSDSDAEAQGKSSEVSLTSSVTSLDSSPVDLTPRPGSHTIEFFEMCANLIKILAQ
T1 sequence (Q9Y478 2-270): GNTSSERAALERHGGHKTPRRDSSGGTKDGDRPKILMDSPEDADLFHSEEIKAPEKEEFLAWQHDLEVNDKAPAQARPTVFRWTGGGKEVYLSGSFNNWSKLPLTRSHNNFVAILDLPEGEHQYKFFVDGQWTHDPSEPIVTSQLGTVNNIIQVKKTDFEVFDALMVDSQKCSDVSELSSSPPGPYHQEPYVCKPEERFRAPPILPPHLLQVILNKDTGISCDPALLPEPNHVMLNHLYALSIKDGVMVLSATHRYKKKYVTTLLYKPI
T1 sequence (P54619 whole entry partner): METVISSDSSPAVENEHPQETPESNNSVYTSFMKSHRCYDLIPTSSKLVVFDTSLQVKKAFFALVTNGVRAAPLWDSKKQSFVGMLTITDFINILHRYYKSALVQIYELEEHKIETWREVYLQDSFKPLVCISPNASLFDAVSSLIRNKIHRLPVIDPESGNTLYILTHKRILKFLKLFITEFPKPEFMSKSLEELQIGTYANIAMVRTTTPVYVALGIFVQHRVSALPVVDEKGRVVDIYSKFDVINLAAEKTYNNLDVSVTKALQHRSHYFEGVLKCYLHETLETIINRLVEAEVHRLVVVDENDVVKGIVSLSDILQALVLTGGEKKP

Structure (SMILES): NC(=O)NO [Hydroxyurea, hydroxyurea]
- fetal hemoglobin induction, F-cell (HbF+) frequency in enucleated GlyA+ cells ([1]; 14 days of differentiation): increases
- fold change in fetal hemoglobin expression compared to control ([1]; 14 days of differentiation, vs Vehicle (DMSO)): 1,5 fold
- F-cell (HbF+) frequency in enucleated GlyA+ cells [2]: increase

- time of peak AMPK phosphorylation (Thr172, pAMPK/total AMPK) [3]: around 3 hour
Structure (SMILES): COc1cccc(-n2c(=O)[nH]c3cc(Cl)n(-c4ccc(-c5cccc(OC)c5O)cc4)c3c2=O)c1 [Compound 4]
- frequency of F-cells (HbF+) ([1]; 21 days of differentiation): increase
- time of peak AMPK phosphorylation (Thr172, pAMPK/total AMPK) [4]: around 1 hours

Structure (SMILES): N#Cc1c(O)c2c(-c3ccc(-c4ccccc4O)cc3)csc2[nH]c1=O [Compound 2]
- frequency of F-cells (HbF+) ([1]; 21 days of differentiation): increase
- time of peak AMPK phosphorylation (Thr172, pAMPK/total AMPK) [4]: around 1 hours

- time of peak AMPK phosphorylation (Thr172, pAMPK/total AMPK) [3]: around 3 hour
Structure (SMILES): OCCOc1cc(F)c(COc2nc3nc(O[C@@H]4CO[C@H]5[C@@H]4OC[C@H]5O)[nH]c3cc2Cl)c(F)c1 [Compound 3]
- frequency of F-cells (HbF+) ([1]; 21 days of differentiation): increase
- time of peak AMPK phosphorylation (Thr172, pAMPK/total AMPK) [4]: around 1 hours

Structure (SMILES): O=C(O)c1c[nH]c2cc(Cl)c(-c3ccc(C4(O)CCC4)cc3)cc12 [Compound 1]
- fetal hemoglobin induction, F-cell (HbF+) frequency in enucleated GlyA+ cells ([1]; 14 days of differentiation): increases
- increase of HbF+ cells compared to DMSO ([1]; 21 days of differentiation): about 2 fold
- frequency of F-cells (HbF+) ([1]; 21 days of differentiation): increase
- expression of differentiation markers CD71 and CD235a ([5]; after 14 days of differentiation): unchanged
- enucleation of CD34+ cells ([5]; after 21 days of differentiation): no effect
- F-cell (HbF+) frequency in enucleated GlyA+ cells [2]: increase
- expression of proinflammatory M1 marker CD38 [6]: decreased
- expression of proinflammatory M1 marker CD64 [6]: decreased
- expression of proinflammatory M1 marker CD80 [6]: decreased
- expression of proinflammatory M1 marker CD86 [6]: decreased
- mRNA for human HbF (human γ-globin, HBG) increase [7]: not
- fetal hemoglobin protein expression in bone marrow [8]: increase
- ROS in bone marrow [9]: decrease
- Nrf2-antioxidant response element signaling pathway (IPA of proteomics data) [10]: activated
- HO-1 (HMOX1) protein regulation ([10]; vs DMSO): upregulated
- SQSTM1 protein regulation ([10]; vs DMSO): upregulated
- hematocrit [11]: does not reduce
- hemoglobin [11]: does not reduce
- red blood cell counts (RBC) [11]: does not reduce
